This is an account of results in patent US20250120989A1, “BRIDGED TRICYCLIC CARBAMOYLPYRIDONE COMPOUNDS AND USES THEREOF” (priority 2023, published 2025).

pEC50: −log10 of the molar value.

One series concerns HIV-1 (IIIB). Put plainly: microbe, parasite or virus in culture. Format: cell-based. The note with it: Human immunodeficiency virus 1, MT4, 120 h; HIV-1 (IIIB) replication in MT-4 cells, 5 days, Cell Titer Glo; read-out: MT4 EC50.
The nature of the next series: in vitro. The note with it: human, uninfected MT-4 cells.

For the compound `COC1=NO[C@@]2(CC[C@H](C)N3C[C@H]2n2cc(C(=O)NCc4ccc(F)cc4F)c(=O)c(OCOP(=O)(O)O)c2C3=O)C1` [Compound 1, (((3′S,5S,7′R)-10′-((2,4-difluorobenzyl)carbamoyl)-3-methoxy-3′-methyl-1′,11′-dioxo-1′,4′,5′,11′-tetrahydro-3′H,4H,7′H-spiro[isoxazole-5,6′-[2,7]methanopyrido[1,2-a][1,4]diazonin]-12′-yl)oxy)methyl dihydrogen phosphate], in the series on HIV-1 (IIIB), the pEC50 is 8.75. In addition, in the series “in vitro”, half-maximal cytotoxicity (CC50 at 5 days) was put at 15.4 µM.

For the compound `CC1=NO[C@@]2(CC[C@H](C)N3C[C@H]2n2cc(C(=O)NCc4ccc(F)cc4F)c(=O)c(OC(=O)C(C)(C)CCN(CC(=O)O)C(=O)OCOP(=O)(O)O)c2C3=O)C1` [Compound 2, N-(4-(((3′S,5S,7′R)-10′-((2,4-difluorobenzyl)carbamoyl)-3,3′-dimethyl-1′,11′-dioxo-1′,4′,5′,11′-tetrahydro-3′H,4H,7′H-spiro[isoxazole-5,6′-[2,7]methanopyrido[1,2-a][1,4]diazonin]-12′-yl)oxy)-3,3-dimethyl-4-oxobutyl)-N-(((phosphonooxy)methoxy)carbonyl)glycine], in the series on HIV-1 (IIIB), the pEC50 is 8.86. Further, the CC50 at 5 days in “in vitro” amounted to 12.3 µM. In the case of `CC1=NO[C@@]2(CC[C@H](C)N3C[C@H]2n2cc(C(=O)NCc4ccc(F)cc4F)c(=O)c(OC(C)OC(=O)OCCOP(=O)(O)O)c2C3=O)C1` (stereo partly drawn) [Compound 5, 1-(((3′S,5S,7′R)-10′-((2,4-difluorobenzyl)carbamoyl)-3,3′-dimethyl-1′,11′-dioxo-1′,4′,5′,11′-tetrahydro-3′H,4H,7′H-spiro[isoxazole-5,6′-[2,7]methanopyrido[1,2-a][1,4]diazonin]-12′-yl)oxy)ethyl (2-(phosphonooxy)ethyl) carbonate], in the series on HIV-1 (IIIB), the pEC50 is 8.71. Moreover, in “in vitro”, the CC50 at 5 days was determined as 10.6 µM. Regarding `CC1=NO[C@@]2(CC[C@H](C)N3C[C@H]2n2cc(C(=O)NCc4ccc(F)cc4F)c(=O)c(OCOC(=O)OCCN(C)C)c2C3=O)C1` [Compound 14, (((3′S,5S,7′R)-10′-((2,4-difluorobenzyl)carbamoyl)-3,3′-dimethyl-1′,11′-dioxo-1′,4′,5′,11′-tetrahydro-3′H,4H,7′H-spiro[isoxazole-5,6′-[2,7]methanopyrido[1,2-a][1,4]diazonin]-12′-yl)oxy)methyl (2-(dimethylamino)ethyl) carbonate], in “in vitro”, the midpoint of cytotoxicity, the CC50 at 5 days, lay at 17.1 µM. Still for that read-out and setting: as for `CC1=NO[C@@]2(CC[C@H](C)N3C[C@H]2n2cc(C(=O)NCc4ccc(F)cc4F)c(=O)c(OCOC(=O)N(C)CC(=O)O)c2C3=O)C1` [Compound 45, N-(((((3′S,5S,7′R)-10′-((2,4-difluorobenzyl)carbamoyl)-3,3′-dimethyl-1′,11′-dioxo-1′,4′,5′,11′-tetrahydro-3′H,4H,7′H-spiro[isoxazole-5,6′-[2,7]methanopyrido[1,2-a][1,4]diazonin]-12′-yl)oxy)methoxy)carbonyl)-N-methylglycine], the figure is 50 µM; as for `CC[C@H](OP(=O)(O)O)[C@H](C)OC(=O)OCOc1c2n(cc(C(=O)NCc3ccc(F)cc3F)c1=O)[C@@H]1CN(C2=O)[C@@H](C)CC[C@]12CC(C)=NO2` [Compound 72, (((3′S,5S,7′R)-10′-((2,4-difluorobenzyl)carbamoyl)-3,3′-dimethyl-1′,11′-dioxo-1′,4′,5′,11′-tetrahydro-3′H,4H,7′H-spiro[isoxazole-5,6′-[2,7]methanopyrido[1,2-a][1,4]diazonin]-12′-yl)oxy)methyl ((2S,3S)-3-(phosphonooxy)pentan-2-yl) carbonate], 27.2 µM.

In “in vitro”, `CC[C@@H](OP(=O)(O)O)[C@H](C)OC(=O)OCOc1c2n(cc(C(=O)NCc3ccc(F)cc3F)c1=O)[C@@H]1CN(C2=O)[C@@H](C)CC[C@]12CC(C)=NO2` [Compound 73, (((3′S,5S,7′R)-10′-((2,4-difluorobenzyl)carbamoyl)-3,3′-dimethyl-1′,11′-dioxo-1′,4′,5′,11′-tetrahydro-3′H,4H,7′H-spiro[isoxazole-5,6′-[2,7]methanopyrido[1,2-a][1,4]diazonin]-12′-yl)oxy)methyl ((2S,3R)-3-(phosphonooxy)pentan-2-yl) carbonate] returned a CC50 at 5 days of 30.8 µM. Same read-out and setting: the value for `CC[C@H](OP(=O)(O)O)[C@H](C)OC(=O)OCOc1c2n(cc(C(=O)NCc3ccc(F)cc3F)c1=O)[C@@H]1CN(C2=O)[C@@H](C)CC[C@]12CC(OC)=NO2` [Compound 74, (((3′S,5S,7′R)-10′-((2,4-difluorobenzyl)carbamoyl)-3-methoxy-3′-methyl-1′,11′-dioxo-1′,4′,5′,11′-tetrahydro-3′H,4H,7′H-spiro[isoxazole-5,6′-[2,7]methanopyrido[1,2-a][1,4]diazonin]-12′-yl)oxy)methyl ((2S,3S)-3-(phosphonooxy)pentan-2-yl) carbonate] was 26.6 µM. Compound `CC[C@@H](OP(=O)(O)O)[C@H](C)OC(=O)OCOc1c2n(cc(C(=O)NCc3ccc(F)cc3F)c1=O)[C@@H]1CN(C2=O)[C@@H](C)CC[C@]12CC(OC)=NO2` [Compound 75, (((3′S,5S,7′R)-10′-((2,4-difluorobenzyl)carbamoyl)-3-methoxy-3′-methyl-1′,11′-dioxo-1′,4′,5′,11′-tetrahydro-3′H,4H,7′H-spiro[isoxazole-5,6′-[2,7]methanopyrido[1,2-a][1,4]diazonin]-12′-yl)oxy)methyl ((2S,3R)-3-(phosphonooxy)pentan-2-yl) carbonate] yielded a CC50 at 5 days in the series “in vitro” of 34.3 µM. Same read-out and setting: as for `CC[C@@H](OP(=O)(O)O)[C@@H](C)OC(=O)OCOc1c2n(cc(C(=O)NCc3ccc(F)cc3F)c1=O)[C@@H]1CN(C2=O)[C@@H](C)CC[C@]12CC(C)=NO2` [Compound 76, (((3′S,5S,7′R)-10′-((2,4-difluorobenzyl)carbamoyl)-3,3′-dimethyl-1′,11′-dioxo-1′,4′,5′,11′-tetrahydro-3′H,4H,7′H-spiro[isoxazole-5,6′-[2,7]methanopyrido[1,2-a][1,4]diazonin]-12′-yl)oxy)methyl ((2R,3R)-3-(phosphonooxy)pentan-2-yl) carbonate], the figure is 24.8 µM. The same measure, in the same setting: the value for `CC[C@H](OP(=O)(O)O)[C@@H](C)OC(=O)OCOc1c2n(cc(C(=O)NCc3ccc(F)cc3F)c1=O)[C@@H]1CN(C2=O)[C@@H](C)CC[C@]12CC(C)=NO2` [Compound 77, (((3′S,5S,7′R)-10′-((2,4-difluorobenzyl)carbamoyl)-3,3′-dimethyl-1′,11′-dioxo-1′,4′,5′,11′-tetrahydro-3′H,4H,7′H-spiro[isoxazole-5,6′-[2,7]methanopyrido[1,2-a][1,4]diazonin]-12′-yl)oxy)methyl ((2R,3S)-3-(phosphonooxy)pentan-2-yl) carbonate] was 37 µM; that for `CC[C@@H](OP(=O)(O)O)[C@@H](C)OC(=O)OCOc1c2n(cc(C(=O)NCc3ccc(F)cc3F)c1=O)[C@@H]1CN(C2=O)[C@@H](C)CC[C@]12CC(OC)=NO2` [Compound 78, (((3′S,5S,7′R)-10′-((2,4-difluorobenzyl)carbamoyl)-3-methoxy-3′-methyl-1′,11′-dioxo-1′,4′,5′,11′-tetrahydro-3′H,4H,7′H-spiro[isoxazole-5,6′-[2,7]methanopyrido[1,2-a][1,4]diazonin]-12′-yl)oxy)methyl ((2R,3R)-3-(phosphonooxy)pentan-2-yl) carbonate] was 28.6 µM. On the same count and under the same terms, the value for `CC[C@H](OP(=O)(O)O)[C@@H](C)OC(=O)OCOc1c2n(cc(C(=O)NCc3ccc(F)cc3F)c1=O)[C@@H]1CN(C2=O)[C@@H](C)CC[C@]12CC(OC)=NO2` [Compound 79, (((3′S,5S,7′R)-10′-((2,4-difluorobenzyl)carbamoyl)-3-methoxy-3′-methyl-1′,11′-dioxo-1′,4′,5′,11′-tetrahydro-3′H,4H,7′H-spiro[isoxazole-5,6′-[2,7]methanopyrido[1,2-a][1,4]diazonin]-12′-yl)oxy)methyl ((2R,3S)-3-(phosphonooxy)pentan-2-yl) carbonate] was 45.7 µM; that for `CC1=NO[C@@]2(CC[C@H](C)N3C[C@H]2n2cc(C(=O)NCc4ccc(F)cc4F)c(=O)c(OCOC(=O)OC[C@H](OP(=O)(O)O)C(C)C)c2C3=O)C1` [Compound 80, (((3′S,5S,7′R)-10′-((2,4-difluorobenzyl)carbamoyl)-3,3′-dimethyl-1′,11′-dioxo-1′,4′,5′,11′-tetrahydro-3′H,4H,7′H-spiro[isoxazole-5,6′-[2,7]methanopyrido[1,2-a][1,4]diazonin]-12′-yl)oxy)methyl ((R)-3-methyl-2-(phosphonooxy)butyl) carbonate] was 27.2 µM. As for `COC1=NO[C@@]2(CC[C@H](C)N3C[C@H]2n2cc(C(=O)NCc4ccc(F)cc4F)c(=O)c(OCOC(=O)OC[C@H](OP(=O)(O)O)C(C)C)c2C3=O)C1` [Compound 81, (((3′S,5S,7′R)-10′-((2,4-difluorobenzyl)carbamoyl)-3-methoxy-3′-methyl-1′,11′-dioxo-1′,4′,5′,11′-tetrahydro-3′H,4H,7′H-spiro[isoxazole-5,6′-[2,7]methanopyrido[1,2-a][1,4]diazonin]-12′-yl)oxy)methyl ((R)-3-methyl-2-(phosphonooxy)butyl) carbonate], the midpoint of cytotoxicity in the series “in vitro”, the CC50 at 5 days, lay at 36.9 µM.

In “in vitro”, `COC1=NO[C@@]2(CC[C@H](C)N3C[C@H]2n2cc(C(=O)NCc4ccc(F)cc4F)c(=O)c(OCOC(=O)OC[C@@H](OP(=O)(O)O)C(C)C)c2C3=O)C1` [Compound 82, (((3′S,5S,7′R)-10′-((2,4-difluorobenzyl)carbamoyl)-3-methoxy-3′-methyl-1′,11′-dioxo-1′,4′,5′,11′-tetrahydro-3′H,4H,7′H-spiro[isoxazole-5,6′-[2,7]methanopyrido[1,2-a][1,4]diazonin]-12′-yl)oxy)methyl ((S)-3-methyl-2-(phosphonooxy)butyl) carbonate] yielded a CC50 at 5 days of 39.7 µM.
